Experimental data from patent US8796317B2, “Use of 7-nitro-2,1,3-benzoxadiazole derivatives for anticancer therapy” (Universita Degli Studi di Roma “Tor Vergata”, priority 2003, dated 2014).
Where “and” joins values, the source holds several entries; their conditions need not be identical. Identical values can stand only once.

How the values were obtained:
GST M2-2 = target: T1, GST M2-2 (Homo sapiens, UniProt P28161); test: Inhibition of GST activity (CDNB/GSH spectrophotometric assay); type: biochemical; conditions: 25° C., pH 6.5, 1 mM glutathione, 1 mM CDNB
T1 construct: made in house; host or cells: Escherichia coli
T1 sequence (P28161 1-218): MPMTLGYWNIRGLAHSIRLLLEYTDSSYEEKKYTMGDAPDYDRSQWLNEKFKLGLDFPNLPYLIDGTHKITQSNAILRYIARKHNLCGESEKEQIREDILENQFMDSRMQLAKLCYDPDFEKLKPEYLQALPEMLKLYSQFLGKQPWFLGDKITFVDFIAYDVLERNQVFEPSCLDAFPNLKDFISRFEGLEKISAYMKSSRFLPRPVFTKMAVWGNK
Procedure: (§1) These compounds were tested as inhibitors of the activity of the isoenzymes GSTP1-1, GSTA1-1 and GSTM2-2 belonging to the most representative GST classes: the Pi, Mu and Alpha classes.
(§2) GSTA1-1, M2-2 and P1-1, expressed in Escherichia coli, were purified by using a chromatographic passage on an affinity resin capable of selectively retaining the GST (J. Biol. Chem. 270, (1995), 1249-1253).
(§3) GST activity was tested at 25° C. with a 0.1 M potassium phosphate buffer, at pH 6.5, in the presence of the substrates, i.e. of the glutathione (Sigma-Aldrich, Fine Chemicals) in a concentration of 1 mM, and of 1-chloro-2,4-dinitrobenzene (CDNB) (Sigma-Aldrich, Fine Chemicals) 1 mM (Methods Enzymol. 77, 1981, 398-405).
(§4) Enzymatic activity was assessed spectrophotometrically at 340 nm, a wavelength at which it absorbs the reaction product S-(2,4-dinitrobenzene)glutathione (GS-DNB) (6=9.6 mM^−1 cm^−1).

GST A1-1 = target: T2, GST A1-1 (Homo sapiens, UniProt P08263); test: as above; type: biochemical; conditions: 25° C., pH 6.5, 1 mM glutathione, 1 mM CDNB
T2 construct: made in house; host or cells: Escherichia coli
T2 sequence (P08263 1-222): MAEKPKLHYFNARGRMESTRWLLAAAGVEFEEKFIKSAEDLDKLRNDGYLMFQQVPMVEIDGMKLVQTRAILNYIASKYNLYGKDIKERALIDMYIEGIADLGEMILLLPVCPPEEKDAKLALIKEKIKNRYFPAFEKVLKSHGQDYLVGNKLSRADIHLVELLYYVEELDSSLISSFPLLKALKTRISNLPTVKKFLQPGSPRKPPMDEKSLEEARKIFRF
Procedure: as §1, §2, §3, §4

[1] = test system: CEM1.3 (human T-lymphoblastic leukaemia); test: SRB cell growth test; type: cell-based; conditions: CEM13, read-out: Activity trials on cell lines - IC50 (50% inhibition of cell growth), CEM1.3, 48 hours
Procedure: (§5) Four cancer cell lines were used for testing the anticancer activity of the derivatives of 7-nitro-2,1,3-benzoxadiazole: K562 (human myeloid leukaemia), HepG2 (human hepatic carcinoma), CEM1.3 (human T-lymphoblastic leukaemia) and GLC-4 (human small cell lung carcinoma).
(§6) The human cancer cell lines were maintained in RPMI 1640 (containing L-glutamine 2 mM and 0.1 g/l of penicillin-G/streptomycin sulphate) enriched with 5% foetal bovine serum (FBS), at 37° C., 5% CO2 and 98% humidity.
(§7) The cells were placed in 96-well plates at a density of 15,000 cells per well, in a culture medium volume of 100 μl. After 24 hours, each of the 7-nitro-2,1,3-benzoxadiazole derivatives to be assayed, at the required concentration, was added to the culture medium. At the same time, some control trials were arranged by adding to the wells the solvent in which the compound was dissolved (% v/v of DMSO in PBS). All measurements were carried out in quadruplicate.
(§8) The cells were incubated for 48 hours at 37° C., at 5% CO2.
(§9) In order to obtain a dose-response profile for each derivative of 7-nitro-2,1,3-benzoxadiazole under study, an evaluation process based on the method described by Shekan et al (J. Natl. Cancer. Inst. 82, (1990), 1107-1112) was used.
(§10) After incubation, the percentage cell growth was evaluated by an insitu cell fixation procedure, followed by an SRB test using a colouring procedure with sulphorodamine B capable of specifically binding to proteins. The coloured product was then solubilised and quantified spectrophotometrically in order to determine the growth of the cells treated with the compound under study with respect to the ones treated with the solvent only.

[2] = test system: HepG2 (human hepatic carcinoma); test: SRB cell growth test; type: cell-based; conditions: HepG2, read-out: Activity trials on cell lines - IC50 (50% inhibition of cell growth), HepG2, 48 hours
Procedure: as §5, §6, §7, §8, §9, §10

[3] = test system: K562 (human myeloid leukaemia); test: SRB cell growth test; type: cell-based; conditions: K562, read-out: Activity trials on cell lines - IC50 (50% inhibition of cell growth), K562, 48 hours
Procedure: as §5, §6, §7, §8, §9, §10

[4] = test system: GLC-4 (human small cell lung carcinoma); test: SRB cell growth test; type: cell-based; conditions: GLC4, read-out: Activity trials on cell lines - IC50 (50% inhibition of cell growth), GLC-4, 48 hours
Procedure: as §5, §6, §7, §8, §9, §10

GST P1-1 = target: T3, GST P1-1 (Homo sapiens, UniProt P09211); test: Inhibition of GST activity (CDNB/GSH spectrophotometric assay); type: biochemical; conditions: for IC50: 25° C., pH 6.5, 1 mM glutathione, 1 mM CDNB
T3 construct: made in house; host or cells: Escherichia coli
T3 sequence (P09211 2-210 limits assumed): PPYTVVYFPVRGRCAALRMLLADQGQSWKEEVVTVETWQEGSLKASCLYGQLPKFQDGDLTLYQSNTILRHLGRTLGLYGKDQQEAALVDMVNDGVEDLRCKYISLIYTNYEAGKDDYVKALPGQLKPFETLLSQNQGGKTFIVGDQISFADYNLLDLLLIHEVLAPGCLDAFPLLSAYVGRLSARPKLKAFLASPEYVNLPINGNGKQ
Procedure: as §2, §3, §4

K562 cells = test: Flow cytometric analysis of apoptosis (Annexin V-FITC / PI); type: cell-based, human; conditions: K562, 10 μM
Procedure: (§11) Cells were washed in PBS, and stained with propidium iodide and with the impermeant dye Annexin V-FITC (Bender MedSystems, Vienna, Austria). The stained cells were analysed using a FACScan Flow Cytometer (Becton-Dickinson, CA). Data were recorded and statistically analysed by WinMDI version 2.8 software. Simultaneous staining of cells with Annexin V-FITC and PI allows the discrimination of intact cells, early apoptotic and late apoptotic or necrotic cells.

CEM1.3 cells = test: as above; type: cell-based, human; conditions: CEM1.3, 2 μM
Procedure: as §11

caspase-3 in K562 cells = test: Caspase-3 activation (Ac-DEVD-AFC) in cell lysates; type: cell-based, human; conditions: K562, 10 μM, after 24 h
Procedure: Pellets of cells at different times of incubation with 7-nitro-benzofurazan derivative No. 2 (10 μM and 2 μM with K562 and CEM1.3 respectively), were resuspended with lysis buffer (100 mM Hepes, pH 7.6, 0.1% Chaps, 1 mM EDTA, 1 mM Phenyl-methyl-sulphonyl-fluoride and 10 mM DTT) for 20 min on ice and cells were disrupted by 10-s sonication. Lysates, after centrifugation, were utilized to measure the caspase-3 activity. The substrate utilized was the model fluorescent peptide Ac-DEVD-AFC (Acetyl-Asp-GluVal-Asp-7-amino-4-trifluoromethyl coumarin) which was proteolyzed by caspase-3 resulting in a fluorescence emission at 505 nm (excitation at 400 nm). As control, lysates were incubated 30 min at 30° C. with the caspase inhibitor DEVD-CHO before evaluation of enzyme activity. Caspase activity was expressed as fluorescence change observed per minute per number of cells.

[5] = target: T4, GST-JNK complex in K562 cells (Homo sapiens, UniProt P09211); test: Immunoprecipitation with anti-JNK antibody and Western blot; type: cell-based; conditions: K562 lysates, 10 μM; slightly increases only after 3 h
T4 construct: K562 cell lysates were immunoprecipitated with an anti-JNK antybody and used for Western blot analysis; endogenous in cells; host or cells: K562
T4 sequence (P09211 2-210 limits assumed, one chain of several): as the sequence (P09211 2-210 limits assumed) above
Procedure: For the immunoprecipitation analysis, cell pellets were resuspended in lysis buffer, and cells were disrupted by 10-s sonication. Lysates were then centrifuged at 14,000 g for 15 min at 4° C. Proteins were incubated in lysis buffer with anti-JNK antibody for 2 h at 4° C. Immunocomplexes were absorbed with protein A-Sepharose for 30 min at 4° C. After three washes with lysis buffer, immune pellets were boiled in SDS sample buffer. Proteins were loaded on 15% SDS-polyacrylamide gel and transferred to nitrocellulose. GST, JNK and phospho-JNK were detected by specific antibody.
To assess if cell treatment with derivative No. 2 affects the amount of GST-JNK complex, K562 cell lysates were immunoprecipitated with an anti-JNK antybody and used for Western blot analysis.

[6] = test system: CEMVBL100, leukaemia line resistant to vinblastine (hyperexpressing P-glycoprotein); test: Cytotoxicity of vinblastine on resistant cells with and without the derivative (SRB test); type: cell-based; conditions: CEM/VBL100, 48 h
Procedure: In cancer cells the resistance to many anticancer drugs is often associated with a high expression of P-glycoprotein, a membrane protein belonging to the overall family of ABC transporters (ATP-binding cassette).
The cells were placed in 96-well strips at a density of 15,000 cells per well, in a volume of culture medium of 100 μl. After 24 hours, a suitable concentration of between 25 nM and 1000 nM of vinblastine was added to the culture medium. […] At the same time, some control trials were arranged by adding to the wells the solvent in which the compound was dissolved (% v/v of DMSO in PBS). All measurements were carried out in quadruplicate. After 48 hours of incubation, a dosage-response profile was obtained by using the SRB test (J. Natl. Cancer. Inst. 82, (1990), 1107-1112, loc. cit.).

[7] = test system: K562, HepG2, CEM1.3 and GLC-4 cancer cell lines; test: Cytotoxicity, viability and cell penetration on all the tested cancer cell lines; type: cell-based, human
Procedure: as §5, §6
as §7, with “quadruplicate. […]” for “quadruplicate.”
as §10

Row | Structure (SMILES) | IC50 (GST M2-2) | IC50 (GST A1-1) [µM] | IC50 [1] [µM] | IC50 [2] [µM] | IC50 [3] [µM] | IC50 [4] [µM] | IC50 (GST P1-1) [µM] | apoptosis (K562 cells; 12 h treatment) [%] | apoptosis (K562 cells; after 24 h) [%] | apoptosis (CEM1.3 cells; 12 h treatment) [%] | apoptosis (CEM1.3 cells; after 24 h) [%] | caspase-3 activity (caspase-3 in K562 cells) | amount of GSTP1-1 that co-precipitates with JNK [5] | IC50 ([6]; CEM VBL100, 7-nitro-2,1,3-benzoxadiazole derivative absent) [µM] | IC50 ([6]; CEM VBL100, with 0.5 μM 6-(7-nitro-2,1,3-benzoxadiazol-4-ylthio)hexanol) [µM] | viability of all the tested cancer cell lines ([7]; 48 hours of incubation with 50 μM) | penetration into the cells (intracellular fluorescence) ([7]; after 6 hours of incubation, various concentrations) | inhibition activity with regard to the enzymatic isoform GSTP1-1 (in words) (GST P1-1)
1 | O=[N+]([O-])c1ccc(SCCCCCCO)c2nonc12 [(2), 6-(7-nitro-2,1,3-benzoxadiazol-4-ylthio)hexanol] | 0.01 µM | 25 | 0.1 | 2.9 | 0.8 | 1.4 | – | 30 | 41 | 34 | 47 | strong increase of caspase-3 | rapidly decreased | – | – | – | – | –
2 | CC[C@]1(O)C[C@@H]2CN(CCc3c([nH]c4ccccc34)[C@@](C(=O)OC)(c3cc4c(cc3OC)N(C)[C@H]3[C@@](O)(C(=O)OC)[C@H](OC(C)=O)[C@]5(CC)C=CCN6CC[C@]43[C@@H]65)C2)C1 [vinblastine] | – | – | – | – | – | – | – | – | – | – | – | – | – | 0.34 | 0.05 | – | – | –
3 | O=[N+]([O-])c1ccc(NCCCCCCO)c2nonc12 [(6), 6-(7-nitro-2,1,3-benzoxadiazol-4-ylamino)hexanol] | ~2 µM and 1.8 µM | > 100 | > 50 | > 50 | > 50 | > 50 | – | – | – | – | – | – | – | – | – | still viable | easily penetrate the cells | no inhibition activity

Now from value to molecule, other results behind:

Row | IC50 (GST M2-2) | IC50 (GST A1-1) [µM] | IC50 [1] [µM] | IC50 [2] [µM] | IC50 [3] [µM] | IC50 [4] [µM] | IC50 (GST P1-1) [µM] | Structure (SMILES) | apoptosis (K562 cells; 12 h treatment) [%] | apoptosis (K562 cells; after 24 h) [%] | apoptosis (CEM1.3 cells; 12 h treatment) [%] | apoptosis (CEM1.3 cells; after 24 h) [%] | caspase-3 activity (caspase-3 in K562 cells) | amount of GSTP1-1 that co-precipitates with JNK [5] | IC50 ([6]; CEM VBL100, 7-nitro-2,1,3-benzoxadiazole derivative absent) [µM] | IC50 ([6]; CEM VBL100, with 0.5 μM 6-(7-nitro-2,1,3-benzoxadiazol-4-ylthio)hexanol) [µM] | viability of all the tested cancer cell lines ([7]; 48 hours of incubation with 50 μM) | penetration into the cells (intracellular fluorescence) ([7]; after 6 hours of incubation, various concentrations) | inhibition activity with regard to the enzymatic isoform GSTP1-1 (in words) (GST P1-1)
4 | 0.01 µM | 11 | 3.9 | 16 | 8.8 | 10 | 6.3 | O=[N+]([O-])c1ccc(Sc2ncc[nH]2)c2nonc12 [(3), 2-(7-nitro-2,1,3-benzoxadiazol-4-ylthio)imidazole] | – | – | – | – | – | – | – | – | – | – | –
5 | 0.03 µM | 6.5 | 2.4 | 16.3 | 6.4 | 7.5 | 0.7 | O=[N+]([O-])c1ccc(Sc2ccc(O)cc2)c2nonc12 [(4), 4-(7-nitro-2,1,3-benzoxadiazol-4-ylthio)phenol] | – | – | – | – | – | – | – | – | – | – | –
6 | 0.03 µM | 56 | 0.2 | 3.2 | 2.2 | 3.2 | 2 | O=[N+]([O-])c1ccc(SCCCCO)c2nonc12 [(1), 4-(7-nitro-2,1,3-benzoxadiazol-4-ylthio)butanol] | – | – | – | – | – | – | – | – | – | – | –
7 | 0.31 µM | 66 | 6.5 | 25 | 38 | 16.5 | 5.74 | O=C(O)CCSc1ccc([N+](=O)[O-])c2nonc12 [(5), 3-(7-nitro-2,1,3-benzoxadiazol-4-ylthio)propionic acid] | – | – | – | – | – | – | – | – | – | – | –
